Laboratory results reported in patent US9458198B1, “Cyclic peptide-based NPR-B agonists” (priority 2009, dated 2016).
Read-outs that look alike come from different tables or passages of the source. Where a SMILES comes first, the peptide text is derived from it. Bridges are numbered along the chain shown (N, C = ends). [ ]: non-standard residue; d: D form. The star is where a group is joined. Hexanoyl = CCCCCC(=O)*

Target: T1, NPR-B (Homo sapiens, UniProt P20594)
T1 construct: a functional assay using endogenously NPR-B expressing GTM-3 cells; endogenous in cells; host or cells: GTM-3 (transformed human trabecular meshwork cells)
T1 sequence (P20594 23-1047): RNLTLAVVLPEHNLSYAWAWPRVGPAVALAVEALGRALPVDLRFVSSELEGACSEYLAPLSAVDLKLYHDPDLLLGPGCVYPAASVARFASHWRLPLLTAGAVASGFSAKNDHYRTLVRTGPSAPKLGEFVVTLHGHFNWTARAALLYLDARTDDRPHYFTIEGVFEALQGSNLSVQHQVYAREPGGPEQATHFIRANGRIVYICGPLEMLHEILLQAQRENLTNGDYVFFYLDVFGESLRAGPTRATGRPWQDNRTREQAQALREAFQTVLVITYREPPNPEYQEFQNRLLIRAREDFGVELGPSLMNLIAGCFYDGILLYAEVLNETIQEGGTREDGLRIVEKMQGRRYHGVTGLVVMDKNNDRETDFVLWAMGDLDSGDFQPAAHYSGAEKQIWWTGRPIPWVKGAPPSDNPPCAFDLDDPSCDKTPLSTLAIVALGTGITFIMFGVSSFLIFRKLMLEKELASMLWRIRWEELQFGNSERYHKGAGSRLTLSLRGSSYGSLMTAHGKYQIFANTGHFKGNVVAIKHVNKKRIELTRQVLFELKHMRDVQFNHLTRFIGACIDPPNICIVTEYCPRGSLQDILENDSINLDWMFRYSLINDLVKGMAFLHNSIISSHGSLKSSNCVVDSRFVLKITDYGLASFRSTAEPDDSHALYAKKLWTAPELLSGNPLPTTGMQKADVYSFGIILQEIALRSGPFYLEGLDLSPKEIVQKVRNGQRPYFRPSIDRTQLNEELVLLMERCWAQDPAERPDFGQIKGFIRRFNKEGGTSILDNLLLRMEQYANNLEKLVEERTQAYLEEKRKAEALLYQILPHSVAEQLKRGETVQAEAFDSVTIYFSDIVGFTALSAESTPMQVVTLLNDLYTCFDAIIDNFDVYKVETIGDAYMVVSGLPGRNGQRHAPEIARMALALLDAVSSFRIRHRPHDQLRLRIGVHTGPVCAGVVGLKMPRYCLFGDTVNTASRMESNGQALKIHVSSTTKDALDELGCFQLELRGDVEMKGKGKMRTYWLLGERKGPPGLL
Experiment: NPR-B induced production of cyclic GMP in GTM-3 cells
Format: cell-based
Procedure: The efficacy and potency of compounds to activate NPR-B were evaluated in a functional assay using endogenously NPR-B expressing GTM-3 cells (Pang et al. 1994, Curr Eye Res 13:51-63). In this assay the dose dependent production of cyclic GMP (cGMP) is determined and Emax (maximum activation) and EC50 values are calculated.
The cell culture medium is aspirated and each well is washed with 200 μl DMEM/Ham's F12=Medium (Gibco). Then, 200 μl Medium supplemented with 1 mM IBMX (3-Isobutyl-1-methyl-xanthin, Sigma) is added to each well and incubated for 15 min. at room temperature.
Final compound concentrations are in the range from 45 μM to 20 nM.

[1] = GTM-3 cells, group needs both EC50 and Emax criteria, checked A then B then C, read-out: Activity (group): NPR-B activation, EC50 and Emax (CNP = 100%)
[2] = Activity (group): NPR-B activation, EC50 and Emax (CNP = 100%), GTM-3 cells, group needs both EC50 and Emax criteria, checked A then B then C
[3] = Activity (group): NPR-B activation, EC50 and Emax (CNP = 100%)

Compound	EC50 [1]	EC50 [3]	further results
CC[C@H](C)[C@@H]1NC(=O)[C@H](CCCNC(=N)N)NC(=O)[C@H](CC(=O)O)NC(=O)[C@H](CC(C)C)NC(=O)[C@H](CCCCN)NC(=O)[C@H](CC(C)C)NC(=O)CNC(=O)[C@H](Cc2ccccc2)NC(=O)[C@@H](Cc2ccccc2)NC(=O)[C@@H](NC(=O)[C@@H](N)CCSC)CSSC[C@@H](C(N)=O)NC(=O)[C@H](CO)NC1=O [compound 45]	< 15 µM	–	–
CC[C@H](C)[C@@H]1NC(=O)[C@H](CCCNC(=N)N)NC(=O)[C@H](CC(=O)O)NC(=O)[C@H](CC(C)C)NC(=O)[C@@H]2CCCN2C(=O)[C@H](CC(C)C)NC(=O)CNC(=O)[C@H](Cc2ccccc2)NC(=O)[C@@H](C)NC(=O)[C@@H](NC(=O)[C@@H](N)CCSC)CSSC[C@@H](C(N)=O)NC(=O)[C@H](CO)NC1=O [compound 49]	–	–	EC50 [2]: < 1 µM
CC[C@H](C)[C@@H]1NC(=O)[C@H](CCCNC(=N)N)NC(=O)[C@H](CC(=O)O)NC(=O)[C@H]([C@@H](C)CC)NC(=O)[C@H](CCCCN)NC(=O)[C@H](CC(C)C)NC(=O)CNC(=O)[C@H](Cc2ccccc2)NC(=O)[C@@H](C)NC(=O)[C@@H](NC(=O)[C@@H](N)CCSC)CSSC[C@@H](C(N)=O)NC(=O)[C@H](CO)NC1=O [compound 53] (H-MC[dA]FGLKIDRISC-NH2; disulfide 2-13)	< 1 µM	–	–
CC[C@H](C)[C@@H]1NC(=O)[C@H](CCCNC(=N)N)NC(=O)[C@H](CC(=O)O)NC(=O)[C@H](C(C)C)NC(=O)[C@H](CCCCN)NC(=O)[C@H](CC(C)C)NC(=O)CNC(=O)[C@H](Cc2ccccc2)NC(=O)[C@@H](C)NC(=O)[C@@H](NC(=O)[C@@H](N)CCSC)CSSC[C@@H](C(N)=O)NC(=O)[C@H](CO)NC1=O [compound 54] (H-MC[dA]FGLKVDRISC-NH2; disulfide 2-13)	< 5 µM	–	–
CSCC[C@H](N)C(=O)N[C@H]1CSSC[C@@H](C(N)=O)NC(=O)[C@H](CO)NC(=O)[C@H](CC(C)C)NC(=O)[C@H](CCCNC(=N)N)NC(=O)[C@H](CC(=O)O)NC(=O)[C@H](CC(C)C)NC(=O)[C@H](CCCCN)NC(=O)[C@H](CC(C)C)NC(=O)CNC(=O)[C@H](Cc2ccccc2)NC(=O)[C@@H](C)NC1=O [compound 56] (H-MC[dA]FGLKLDRLSC-NH2; disulfide 2-13)	< 5 µM	–	–
CSCC[C@H](N)C(=O)N[C@H]1CSSC[C@@H](C(N)=O)NC(=O)[C@H](CO)NC(=O)[C@H](C(C)C)NC(=O)[C@H](CCCNC(=N)N)NC(=O)[C@H](CC(=O)O)NC(=O)[C@H](CC(C)C)NC(=O)[C@H](CCCCN)NC(=O)[C@H](CC(C)C)NC(=O)CNC(=O)[C@H](Cc2ccccc2)NC(=O)[C@@H](C)NC1=O [compound 57] (H-MC[dA]FGLKLDRVSC-NH2; disulfide 2-13)	< 5 µM	–	–
CCC(=O)N[C@H]1CSSC[C@@H](C(N)=O)NC(=O)[C@H](CO)NC(=O)[C@H]([C@@H](C)CC)NC(=O)[C@H](CCCNC(=N)N)NC(=O)[C@H](CC(=O)O)NC(=O)[C@H](CC(C)C)NC(=O)[C@H](CCCCN)NC(=O)[C@H](CC(C)C)NC(=O)CNC(=O)[C@H](Cc2ccccc2)NC(=O)[C@@H](C)NC1=O [compound 62]	–	< 5 µM	–
CC[C@H](C)[C@@H]1NC(=O)[C@H](CCCNC(=N)N)NC(=O)[C@H](CC(=O)O)NC(=O)[C@H](CC(C)C)NC(=O)[C@H](CCCCN)NC(=O)[C@H](CC(C)C)NC(=O)CNC(=O)[C@H](Cc2ccccc2)NC(=O)[C@@H](C)NC(=O)[C@@H](NC(=O)CC(C)C)CSSC[C@@H](C(N)=O)NC(=O)[C@H](CO)NC1=O [compound 63]	–	< 5 µM	–
CC[C@H](C)[C@@H]1NC(=O)[C@H](CCCNC(=N)N)NC(=O)[C@H](CC(=O)O)NC(=O)[C@H](CC(C)C)NC(=O)[C@H](CCCCN)NC(=O)[C@H](CC(C)C)NC(=O)CNC(=O)[C@H](Cc2ccccc2)NC(=O)[C@@H](C)NC(=O)[C@@H](NC(=O)CCC(C)C)CSSC[C@@H](C(N)=O)NC(=O)[C@H](CO)NC1=O [compound 64]	–	< 1 µM	–
CCCCCC(=O)N[C@H]1CSSC[C@@H](C(N)=O)NC(=O)[C@H](CO)NC(=O)[C@H]([C@@H](C)CC)NC(=O)[C@H](CCCNC(=N)N)NC(=O)[C@H](CC(=O)O)NC(=O)[C@H](CC(C)C)NC(=O)[C@H](CCCCN)NC(=O)[C@H](CC(C)C)NC(=O)CNC(=O)[C@H](Cc2ccccc2)NC(=O)[C@@H](C)NC1=O [compound 65]	–	< 1 µM	–
CC[C@H](C)[C@@H]1NC(=O)[C@H](CCCNC(=N)N)NC(=O)[C@H](CC(=O)O)NC(=O)[C@H](CC(C)C)NC(=O)[C@H](CCCCN)NC(=O)[C@H](CC(C)C)NC(=O)CNC(=O)[C@H](Cc2ccccc2)NC(=O)[C@@H](C)NC(=O)[C@@H](NC(=O)c2ccccc2)CSSC[C@@H](C(N)=O)NC(=O)[C@H](CO)NC1=O [compound 66]	–	–	EC50 [2]: < 5 µM
CC[C@H](C)[C@@H]1NC(=O)[C@H](CCCNC(=N)N)NC(=O)[C@H](CC(=O)O)NC(=O)[C@H](CC(C)C)NC(=O)[C@H](CCCCN)NC(=O)[C@H](CC(C)C)NC(=O)CNC(=O)[C@H](Cc2ccccc2)NC(=O)[C@@H](C)NC(=O)[C@@H](NC(=O)CCCC(C)C)CSSC[C@@H](C(N)=O)NC(=O)[C@H](CO)NC1=O [compound 67]	–	< 1 µM	–
CCCCCCCC(=O)N[C@H]1CSSC[C@@H](C(N)=O)NC(=O)[C@H](CO)NC(=O)[C@H]([C@@H](C)CC)NC(=O)[C@H](CCCNC(=N)N)NC(=O)[C@H](CC(=O)O)NC(=O)[C@H](CC(C)C)NC(=O)[C@H](CCCCN)NC(=O)[C@H](CC(C)C)NC(=O)CNC(=O)[C@H](Cc2ccccc2)NC(=O)[C@@H](C)NC1=O [compound 68]	–	< 1 µM	–
CC[C@H](C)[C@@H]1NC(=O)[C@H](CCCNC(=N)N)NC(=O)[C@H](CC(=O)O)NC(=O)[C@H](CC(C)C)NC(=O)[C@H](CCCCN)NC(=O)[C@H](CC(C)C)NC(=O)CNC(=O)[C@H](Cc2ccccc2)NC(=O)[C@@H](C)NC(=O)[C@@H](NC(=O)Cc2ccccc2)CSSC[C@@H](C(N)=O)NC(=O)[C@H](CO)NC1=O [compound 69]	–	–	EC50 [2]: < 5 µM
CC[C@H](C)[C@@H]1NC(=O)[C@H](CCCNC(=N)N)NC(=O)[C@H](CC(=O)O)NC(=O)[C@H](CC(C)C)NC(=O)[C@H](CCCCN)NC(=O)[C@H](CC(C)C)NC(=O)CNC(=O)[C@H](Cc2ccccc2)NC(=O)[C@@H](C)NC(=O)[C@@H](NC(=O)CCc2ccccc2)CSSC[C@@H](C(N)=O)NC(=O)[C@H](CO)NC1=O [compound 70]	–	< 1 µM	–
CCCCS(=O)(=O)N[C@H]1CSSC[C@@H](C(N)=O)NC(=O)[C@H](CO)NC(=O)[C@H]([C@@H](C)CC)NC(=O)[C@H](CCCNC(=N)N)NC(=O)[C@H](CC(=O)O)NC(=O)[C@H](CC(C)C)NC(=O)[C@H](CCCCN)NC(=O)[C@H](CC(C)C)NC(=O)CNC(=O)[C@H](Cc2ccccc2)NC(=O)[C@@H](C)NC1=O [compound 71]	< 5 µM	–	–
CC[C@H](C)[C@@H]1NC(=O)[C@H](CCCNC(=N)N)NC(=O)[C@H](CC(=O)O)NC(=O)[C@H](CC(C)C)NC(=O)[C@H](CCCCN)NC(=O)[C@H](CC(C)C)NC(=O)CNC(=O)[C@H](Cc2ccccc2)NC(=O)[C@@H](C)NC(=O)[C@@H](NC(=O)CCCc2ccccc2)CSSC[C@@H](C(N)=O)NC(=O)[C@H](CO)NC1=O [compound 72]	–	< 1 µM	–
CC[C@H](C)[C@@H]1NC(=O)[C@H](CCCNC(=N)N)NC(=O)[C@H](CC(=O)O)NC(=O)[C@H](CC(C)C)NC(=O)[C@H](CCCCN)NC(=O)[C@H](CC(C)C)NC(=O)CNC(=O)[C@H](Cc2ccccc2)NC(=O)[C@@H](C)NC(=O)[C@@H](N)CSSC[C@@H](C(N)=O)NC(=O)[C@H](CO)NC1=O [compound 73]	–	–	EC50 [2]: < 15 µM
CCCCCC(=O)N[C@H]1CSSC[C@@H](C(N)=O)NC(=O)[C@H](CO)NC(=O)[C@H]([C@@H](C)CC)NC(=O)[C@H](CCCNC(=N)N)NC(=O)[C@H](CC(=O)O)NC(=O)[C@H]([C@@H](C)CC)NC(=O)[C@H](CCCCN)NC(=O)[C@H](CC(C)C)NC(=O)CNC(=O)[C@H](Cc2ccccc2)NC(=O)[C@@H](C)NC1=O [compound 87] (Hexanoyl-C[dA]FGLKIDRISC-NH2; disulfide 1-12)	< 1 µM	–	–
